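All cell lines were grown in 96-well plates and treated with compound for 48 hours. Abbreviation: GI50, concentration required for 50% inhibition of growth. TGI: concentration producing complete growth inhibition.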
Assays:
Test in all cases: NCI tumour cell line growth inhibition, 48 h
[1] = system: UACC-62 melanoma
[2] = system: M14 melanoma
[3] = system: A498 renal
[4] = system: SF-295 CNS
[5] = system: MALME-3M melanoma
[6] = system: OVCAR-5 ovarian
[7] = system: SK-MEL-2 melanoma
[8] = system: DU-145 prostate
[9] = system: MDA-MB-231 breast
[10] = system: HOP-92 NSCLC
[11] = system: HCC-2998 colon
[12] = system: NCI-H23 lung
[13] = system: PC-3 prostate
[14] = system: SN12C renal
[15] = system: HL-60(TB) leukemia
[16] = system: UACC-257 melanoma
[17] = system: BT-549 breast

## N=C(N)c1ccc(-c2ccc(-c3ccccc3)s2)s1
[1]
  GI50: 15.6 nM
  TGI: 1300 nM
[2]
  GI50: < 10 nM
  TGI: 15.5 nM
[3]
  GI50: < 10 nM
  TGI: 1340 nM
[4]
  GI50: 32.1 nM
  TGI: 273 nM
[5]
  GI50: 1170 nM
  TGI: 2590 nM
[6]
  GI50: 374 nM
  TGI: 2450 nM
[7]
  GI50: 1760 nM
  TGI: 3380 nM
[8]
  GI50: < 10 nM
  TGI: 1100 nM
[9]
  GI50: 753 nM
  TGI: 2500 nM
[10]
  GI50: 65.5 nM
  TGI: 2170 nM
[11]
  GI50: 1050 nM
  TGI: 2360 nM
[12]
  GI50: < 10 nM
  TGI: 1370 nM
[13]
  GI50: 249 nM
  TGI: 2030 nM
[14]
  GI50: 156 nM
  TGI: 1950 nM
[15]
  GI50: 28.7 nM
  TGI: 1430 nM
[16]
  GI50: 156 nM
  TGI: 2310 nM
[17]
  GI50: 26.7 nM
  TGI: 2000 nM
